Source: patent US11517556B2, “Composition for BKCa channel activation” (GWANGJU INSTITUTE OF SCIENCE AND TECHNOLOGY, priority 2016, dated 2022)

What was measured:
[1] = molecular target: T1, rat BKCa channel α-subunit (rSlo1) (Rattus norvegicus, UniProt Q62976); experiment: Macroscopic current patch-clamp recording, Xenopus oocyte excised patches; type: cell-based
T1 construct: expressed in transfected cells; host or cells: Xenopus laevis oocytes injected with cRNA (vector pNBC1.0)
Excerpt: (§1) Xenopus laevis oocytes heterologously expressing a BKCa channel α-subunit (Slo1) were used for electrophysiological recording. Subcloning and functional expression of the rat BKCa channel α-subunit using the oocyte expression vector pNBC1.0 has been reported (Ha et al., 2000). Sequence information of Slo1 used in the present disclosure is published in GenBank as expression number AF135265. Plasmid DNA was linearized using Notl restriction enzyme, and complementary RNA (cRNA) was synthesized using T7 RNA polymerase in the presence of nucleoside triphosphate and cap analog m7G(5′)ppp(5′)G from a linear form of DNA using mMessage Machine (Ambion).
(§2) Oocytes from stages V to VI were surgically removed from ovarian lobes of anesthetized X. laevis (Xenopus I, Dexter, Mich.). The removed oocytes were transferred to a Ca^2+-free oocyte ringer's (OR) culture medium (86 mM NaCl, 1.5 mM KCl, 2 mM MgCl2 and 10 mM HEPES, pH 7.6). The oocytes were cultured in Ca^2+-free OR medium containing 3 mg/ml collagenase (Worthington Biochemicals) for 1 hour and 30 minutes to 2 hours. This removed the follicular cell layer of the oocyte. Then, the oocytes were widely washed with Ca^2+-free OR culture medium and ND-96 medium (96 mM NaCl, 2 mM KCl, 1.8 mM CaCl2, 1 mM MgCl2, 5 mM HEPES, and 50 µg/ml gentamycin, pH 7.6). The washed oocytes were stored at 18° C. in ND-96 medium. Before oocyte was used, the oocyte was stabilized for at least one day. After the stabilization, approximately 50 ng of synthesized cRNA in 50 nl of nuclease-free water was injected into each oocyte for macroscopic current recording, and approximately 1 ng of synthesized cRNA in 50 nl of nuclease-free water was injected into each oocyte for single-channel recording using a micro-dispenser (Drummond Scientific, Broomall, Pa.). The cRNA-injected oocytes were cultured in ND-96 medium for 1 to 3 days at 18 degree C. Immediately prior to the patch-clamp experiment, the oocyte's vitelline membrane was manually removed with fine forceps.
[…] Patch pipettes were prepared from borosilicate and glass (WPI, Sarasota, Fla.). The pipettes were fire-polished with a resistance of 2 to 4 MΩ for patch recording. For single-channel recording, the patch pipettes were fire-polished with 4 to 8 MΩ resistors. To reduce electrical noise, the pipettes were coated with beeswax. Using an Axopatch 200B amplifier (Axon Instruments), the channel current was amplified. Then, the current was low-pass filtered at 1 kHz using a four-pole Bessel filter. Then, the current was digitized at a rate of 10 points/ms using a Digidata 1200A (Axon Instruments).
A single BKCa channel was readily activated by a membrane potential simply transferred at 100 mV at a high concentration of intracellular Ca^2+. For the single-channel assay, the switching between the closed and open conditions was determined by setting a potency at a half of a unitary current amplitude. To determine the single-channel conductance of the expressed channel, the average amplitude of the channel current was obtained from the histograms fitted with Gaussian distributions. An average current for a membrane-pass voltage is shown. A slope-conductance values were obtained from linear regression. The macroscopic current of the expressed BKCa channel was activated by a voltage-clamp pulse delivered from a holding potential of −100 mV at 10 mV increment to a membrane potential of typically −80 to 200 mV, A dwell-time of recorded open and close events for the single BKCa channel was analyzed using a linear histogram method. The dwell-time distribution was fitted into a single index using simplex-least-squares fitting methods (Clampfit, Axon Instruments). A peak in the dwell-time distribution was located at a time-constant of an exponential component.
To prevent activation of endogenous calcium-activated chloride channels, solutions for single and macroscopic channel recording contained gluconate as a non-permeant negative ion. […]

[2] = molecular target: T1, rat BKCa channel α-subunit (rSlo1); experiment: Single-channel patch-clamp recording, outside-out patches of Xenopus oocytes; type: cell-based; settings: 5 μM
Excerpt: as §1
as §2, with “forceps. […]” for “forceps.”
A single BKCa channel was readily activated by a membrane potential simply transferred at 100 mV at a high concentration of intracellular Ca^2+. For the single-channel assay, the switching between the closed and open conditions was determined by setting a potency at a half of a unitary current amplitude. […] The macroscopic current of the expressed BKCa channel was activated by a voltage-clamp pulse delivered from a holding potential of −100 mV at 10 mV increment to a membrane potential of typically −80 to 200 mV, A dwell-time of recorded open and close events for the single BKCa channel was analyzed using a linear histogram method. […]

[3] = 5 μM, outside-out, 3 μM intracellular Ca2+, double-exponential fit
[4] = after removal of 5 μM kurarinone, outside-out

T1 sequence (Q62976 whole entry): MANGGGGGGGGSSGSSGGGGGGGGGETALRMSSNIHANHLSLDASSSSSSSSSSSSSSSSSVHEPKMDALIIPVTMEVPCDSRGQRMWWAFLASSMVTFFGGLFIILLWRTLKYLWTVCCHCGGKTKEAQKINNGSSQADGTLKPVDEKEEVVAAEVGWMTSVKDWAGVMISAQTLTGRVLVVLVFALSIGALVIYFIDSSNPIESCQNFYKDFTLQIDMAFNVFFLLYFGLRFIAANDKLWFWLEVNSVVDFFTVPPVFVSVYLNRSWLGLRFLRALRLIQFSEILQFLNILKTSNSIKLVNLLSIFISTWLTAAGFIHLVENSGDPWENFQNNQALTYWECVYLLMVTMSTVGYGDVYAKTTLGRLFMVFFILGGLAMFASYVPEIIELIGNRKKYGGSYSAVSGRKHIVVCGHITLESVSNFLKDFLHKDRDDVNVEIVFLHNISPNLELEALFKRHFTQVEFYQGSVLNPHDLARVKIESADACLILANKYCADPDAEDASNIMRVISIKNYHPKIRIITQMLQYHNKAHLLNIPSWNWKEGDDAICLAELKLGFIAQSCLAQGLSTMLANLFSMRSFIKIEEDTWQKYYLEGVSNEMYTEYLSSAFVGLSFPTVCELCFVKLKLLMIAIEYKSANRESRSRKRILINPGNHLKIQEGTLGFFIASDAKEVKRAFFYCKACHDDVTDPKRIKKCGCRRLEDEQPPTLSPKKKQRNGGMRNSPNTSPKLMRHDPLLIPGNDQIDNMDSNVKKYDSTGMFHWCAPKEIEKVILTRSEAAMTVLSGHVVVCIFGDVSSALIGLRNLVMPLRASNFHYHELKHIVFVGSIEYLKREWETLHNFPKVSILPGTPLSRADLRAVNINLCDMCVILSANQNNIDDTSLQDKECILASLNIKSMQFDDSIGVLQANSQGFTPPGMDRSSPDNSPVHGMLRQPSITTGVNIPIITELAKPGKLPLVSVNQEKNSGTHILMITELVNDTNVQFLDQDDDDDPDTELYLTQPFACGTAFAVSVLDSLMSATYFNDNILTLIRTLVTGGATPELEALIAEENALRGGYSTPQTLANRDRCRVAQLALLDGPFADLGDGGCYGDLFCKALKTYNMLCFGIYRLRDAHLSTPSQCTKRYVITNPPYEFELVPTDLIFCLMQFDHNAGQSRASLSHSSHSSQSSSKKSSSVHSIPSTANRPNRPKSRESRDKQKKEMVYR

activation time-constant (τactivation) ([1]; 0, 5, 10, 20 μM): not significantly increased | effect on tail-current ([1]; 5 μM on the extracellular surface, outside-out patch, 3 μM intracellular Ca2+): strongly potentiates the tail-current | association time-constant, fast phase (τfast) of potentiation [1, 3]: 1.47 ± 0.34 s | association time-constant, low-speed phase (τslow) of potentiation [1, 3]: 64.9 ± 8.8 s | maximum conductance relative to vehicle control ([1]; 20 μM): 1.8 times | shift of V1/2 in the negative direction ([1]; 20 μM vs vehicle): approximately 80 mV | half-active voltage (V1/2) of G-V relationship ([1]; 20 μM, 3 μM [Ca2+]i, vehicle 107.4±2.2 mV): 27.7±3.0 mV | maximum conductance (G/Gmax) ([1]; 20 μM, normalized to vehicle maximum): 1.35 | dissociation time-constant, fast phase of de-potentiation [1, 4]: 2.78 ± 0.95 s | dissociation time-constant, slow phase of de-potentiation [1, 4]: 90.06 ± 12.21 s | change in BKCa channel current on treatment from the inside of the cell ([1]; excised inside-out patch recording): no significant change | deactivation rate ([1]; increasing concentrations up to 20 μM, voltage-dependent): dramatically decreased | half-activation voltage (V1/2) of single-channel open-probability ([2]; 10 μM intracellular Ca2+, control 68.7±3.7 mV): 43.7±2.1 mV | single-channel conductance ([2]; 10 μM intracellular Ca2+, control 221.1±16.4): 238.3±8.7 pS | average opening-time of single channel ([2]; 50 mV, 2.98+/−0.34 ms in absence): 5.77 ± 0.90 ms | average closing time of single channel ([2]; 50 mV, 3.69±0.80 ms in absence): 3.60 ± 4.1 ms
SMILES: C=C(C)[C@H](CC=C(C)C)Cc1c(O)cc(OC)c2c1O[C@H](c1ccc(O)cc1O)CC2=O [kurarinone]
